PMC10711620 (Frontiers in Pharmacology, 2023)
Read-outs that look alike come from different tables or passages of the source.

What was measured:
[1] = target: T1, thrombin (Bos taurus, UniProt P00735); set-up: method as in Liu et al. (2010); details: ref Liu et al. (2010); read-out: IC50, thrombin inhibition in optimized TT assay; cited from earlier work
T1 construct: comprises two polypeptide chains: the light chain, formed by 36 amino acids, and the heavy chain, which has 259 amino acids; purchased Biomed (Lublin, Poland)

[2] = tested on: thrombin; set-up: method as in Wei et al. (2019); details: ref Wei et al. (2019); read-out: IC50, inhibition of proteolytic activity of thrombin; cited from earlier work
[3] = target: T1, thrombin; assay: Amidolytic activity of thrombin, chromogenic substrate S-2238; type: biochemical; details: read-out: IC50, thrombin-inhibitory efficiency in the amidolytic tests (converted)
Experimental: (§1) When determining the hemostatic parameters, stock solutions of the P. spinosa flower extracts (10 mg/mL) were prepared in 30% DMSO. DMSO concentrations in working solutions of the tested extracts (0.1, 0.5 and 5 mg/mL) were 15%. The studies mixed 5 µL of the extracts with 495 µL of blood plasma or thrombin solution. Control samples were untreated with the extracts; however, they contained a vehicle for the plant preparations, i.e., DMSO.
The thrombin enzyme, purchased from Biomed (Lublin, Poland), was diluted with 0.05 M Tris-buffered saline (TBS), pH 7.4, to the concentration of 0.75 U/mL, and pre-incubated with the examined extracts at the final concentration of 1–50 μg/mL for 10 min, at 37°C. In control samples, 20% DMSO instead of the extracts was used. The measurements were conducted using a kinetic protocol, with absorbance recorded at 415 nm, every 10 s, for 15 min. The reaction mixture comprised 280 µL of thrombin (pre-incubated with the extracts or control/untreated enzyme) and 40 µL of 3 mM chromogenic substrate Chromogenix S-2238 purchased from Instrumentation Laboratory (Bedford, MA, United States of America). Thrombin amidolytic activity was estimated using the BMG Labtech software based on the maximal velocity of the reaction (Vmax). The assays were performed using 96-well microplates and the BMG Labtech SpectroStar Nano spectrophotometer (BMG LABTECH, Offenburg, Germany).

[4] = target: T2, human thrombin (Homo sapiens, UniProt P00734); assay: Circular dichroism spectra of thrombin; details: thrombin 15 μg/mL, compounds from 1 μg/mL, 37°C
T2 construct: comprises two polypeptide chains: the light chain, formed by 36 amino acids, and the heavy chain, which has 259 amino acids; purchased Sigma-Aldrich (St. Louis, MO, United States)
Experimental: Each spectrum was the average of three repetitions. Human thrombin was used at a 15 μg/mL concentration in 10 mM phosphate buffer (pH = 7.4). In determining circular dichroism spectra, stock solutions of P. spinosa flower components (10 mg/mL) in 10% tetrahydrofuran were initially prepared. The final concentration of tetrahydrofuran in the sample was less than 0.05%. The selected extract components in phosphate buffer without thrombin at the concentrations used in the experiments were used as a baseline for thrombin/extract complexes spectra.

[5] = tested on: blood platelets; assay: ADP-induced blood platelet aggregation in platelet-rich plasma; type: cell-based; details: Homo sapiens; for inhibition at 50 µg/mL: 50 μg/mL, ADP as agonist
Experimental: (§2) The blood samples under examination contained a normal range of blood platelets, ranging from 2.15 × 10^5 to 3.41 × 10^5 cells/μl. Platelet-rich plasma (PRP) was prepared by differentially centrifuging whole blood according to the method described earlier ([Kolodziejczyk-Czepas et al., 2021]). Subsequently, freshly obtained PRP samples (495 μL) were pre-incubated for 15 min at 37°C with the tested analytes (5 μL). These mixtures were then transferred into Chrono-Log 490 aggregometer cuvettes (Havertown, United States). Platelet aggregation measurements were conducted after stimulating the samples with either ADP (a final concentration of 10 μM) or collagen (a final concentration of 2 μg/mL), following the manufacturer’s instructions.

[6] = tested on: blood platelets; assay: Collagen-induced blood platelet aggregation in platelet-rich plasma; type: cell-based; details: Homo sapiens, 5 μg/mL
Experimental: as §2

[7] = tested on: human plasma; assay: Activated partial thromboplastin time (APTT) in blood plasma; type: biochemical; details: mean ± SE, n = 12
Experimental: as §1, with “i.e., DMSO. The effect of DMSO on the investigated parameters was excluded in preliminary tests. All experiments used argatroban, a reference anticoagulant drug, as a positive control.” for “i.e., DMSO.”
Thrombin (TT), prothrombin (PT) and the activated partial thromboplastin time (APTT) were measured in blood plasma using a Kselmed K-3002 Optic coagulometer (Kselmed, Grudziadz, Poland) and reagents purchased from Diagon Kft. (Budapest, Hungary), according to the laboratory protocols delivered by the manufacturer. […] Control samples were prepared using blood plasma untreated with the extracts.

[8] = tested on: human plasma; assay: Prothrombin time (PT) in blood plasma; type: biochemical; details: mean ± SE, n = 12
Experimental: as §1, with “DMSO concentrations in working solutions of the tested extracts (0.1, 0.5 and 5 mg/mL) were 15%.” left out
(Budapest, Hungary), according to the laboratory protocols delivered by the manufacturer. […] Control samples were prepared using blood plasma untreated with the extracts.

[9] = tested on: human plasma; assay: Thrombin time (TT) in blood plasma; type: biochemical; details: mean ± SE, n = 12
Experimental: as §1, with “i.e., DMSO. The effect of DMSO on the investigated parameters was excluded in preliminary tests. All experiments used argatroban, a reference anticoagulant drug, as a positive control.” for “i.e., DMSO.”
Thrombin (TT), prothrombin (PT) and the activated partial thromboplastin time (APTT) were measured in blood plasma using a Kselmed K-3002 Optic coagulometer (Kselmed, Grudziadz, Poland) and reagents purchased from Diagon Kft. (Budapest, Hungary), according to the laboratory protocols delivered by the manufacturer. Before the assays, the blood plasma samples were pre-incubated with the examined extracts at the final 1–50 μg/mL concentration for 15 min at 37°C. Control samples were prepared using blood plasma untreated with the extracts.

Molecule: C[C@@H]1O[C@@H](OC[C@H]2O[C@@H](Oc3c(-c4ccc(O)c(O)c4)oc4cc(O)cc(O)c4c3=O)[C@H](O)[C@@H](O)[C@@H]2O)[C@H](O)[C@H](O)[C@H]1O [RT, Quercetin 3-O-(6″-O-α-L-rhamnopyranosyl)-β-D-glucopyranoside]
- IC50 [1]: > 1000 µM
- IC50 [2]: 34.1 µM

Molecule: O=c1c(O)c(-c2ccc(O)cc2)oc2cc(O)cc(O)c12 [KA, Kaempferol]
- IC50 [3]: 283 µM
- IC50 [1]: 109 µM

Molecule: O=c1c(O[C@@H]2O[C@H](CO)[C@@H](O)[C@H](O)[C@H]2O)c(-c2ccc(O)cc2)oc2cc(O)cc(O)c12 [kaempferol-3-O-glucoside]
- IC50 [1]: > 1000 µM

Molecule: Oc1cc(O)c2c(c1)O[C@@]1(c3ccc(O)c(O)c3)Oc3cc(O)c4c(c3[C@@H]2[C@H]1O)O[C@H](c1ccc(O)c(O)c1)[C@H](O)C4 [PA2, proanthocyanidin A2]
- IC50 [3]: 90.8 µM
- Change of thrombin CD spectrum / secondary structure [4]: most apparent modification of the thrombin α-helix structure

Molecule: kaempferol-3-O-(2″-di-E-p-coumaroyl)-rhamnoside
- IC50 [1]: 83 µM

Molecule: O=c1c(O[C@@H]2O[C@@H](CO)[C@H](O)[C@H]2O)c(-c2ccc(O)c(O)c2)oc2cc(O)cc(O)c12 [AV, Quercetin 3-O-α-L-arabinofuranoside]
- inhibition at 50 µg/mL [5]: ≤ 15%

Molecule: O=c1c(O[C@@H]2O[C@H](CO)[C@@H](O)[C@H](O)[C@H]2O)c(-c2ccc(O)c(O)c2)oc2cc(O)cc(O)c12 [IQ, Quercetin 3-O-β-D-glucopyranoside]
- IC50 [2]: 28.8 µM

Molecule: COc1ccc2c(c1)c(CC(=O)O)c(C)n2C(=O)c1ccc(Cl)cc1 [Indomethacin]
- inhibition at 5 µg/mL ([5]; 5 μg/mL, ADP): ~23%
- inhibition at 5 µg/mL [6]: ~86%

Molecule: C[C@@H]1O[C@@H](Oc2c(-c3ccc(O)cc3)oc3cc(O)cc(O)c3c2=O)[C@H](OC(=O)/C=C/c2ccc(O)cc2)[C@H](O)[C@H]1OC(=O)/C=C/c1ccc(O)cc1 [kaempferol-3-O-(2″,4″-di-E-p-coumaroyl)-rhamnoside]
- IC50 [1]: 52 µM

Molecule: O=c1c(O[C@@H]2O[C@H](CO)[C@H](O)[C@H](O)[C@H]2O)c(-c2ccc(O)c(O)c2)oc2cc(O)cc(O)c12 [HY, Quercetin 3-O-β-D-galactopyranoside]
- IC50 [1]: > 1000 µM

Molecule: CC1CNc2c(cccc2S(=O)(=O)N[C@@H](CCCNC(=N)N)C(=O)N2CC[C@@H](C)C[C@@H]2C(=O)O)C1 (stereo partly shown) [Argatroban]
- Clothing times APTT ([7]; 0.5 µg/mL): 202.58 ± 2.32 % of the control/untreated human plasma
- Clothing times APTT ([7]; 5 µg/mL): 423.72 ± 7.83 % of the control/untreated human plasma
- Clothing times APTT ([7]; 10 µg/mL): No clot
- Clothing times PT ([8]; 0.5 µg/mL): 134.01 ± 1.50 % of the control/untreated human plasma
- Clothing times PT ([8]; 5 µg/mL): 562.65 ± 12.69 % of the control/untreated human plasma
- Clothing times PT ([8]; 10 µg/mL): 821.54 ± 46.95 % of the control/untreated human plasma
- Clothing times TT ([9]; 0.5 µg/mL): 974.60 ± 27.50 % of the control/untreated human plasma
- Clothing times TT ([9]; 5 µg/mL): No clot
- Clothing times TT ([9]; 10 µg/mL): No clot

Molecule: O=C(/C=C/c1ccc(O)cc1)O[C@H]1[C@H](Oc2c(-c3ccc(O)cc3)oc3cc(O)cc(O)c3c2=O)O[C@@H](CO)[C@@H]1O [p-cJU, Kaempferol 3-O-(2″-O-E-p-coumaroyl)-α-L-arabinofuranoside]
- IC50 [3]: 67.8 µM

Molecule: O=c1c(O[C@@H]2O[C@@H](CO)[C@H](O)[C@H]2O)c(-c2ccc(O)cc2)oc2cc(O)cc(O)c12 [JU, Kaempferol 3-O-α-L-arabinofuranoside]
- inhibition at 50 µg/mL [5]: ≤ 15%
